Test [1] deals with human Gal-3 (hGal-3) (Homo sapiens (Human), UniProt P17931). Briefly: Competitive binding assay: biotinylated hGal-3 to microplate-adsorbed asialofetuin (ASF). The conditions noted are these: Activity on hGal-3; binding to ASF-coated plates, 3 hours at 4° C.; mean values. As to the method: Evaluation of Compound Inhibitory Activity (IC50)
The inhibitory activity of compounds is determined in competitive binding assays. This spectrophotometric assay measures the binding of biotinylated human Gal-3 (hGal-3) or human Gal-1 (hGal-1), respectively, to a microplate-adsorbed glycoprotein, asialofetuin (ASF) (Proc Natl Acad Sci USA. 2013 Mar. 26; 110(13):5052-7.). Alternatively, and preferably, a human Gal-1 version in which all six cysteines are substituted by serines may be used.
Briefly, compounds are serially diluted in DMSO (working dilutions). ASF-coated 384 well plates are supplemented with 22.8 μL/well of biotinylated hGal-3 or hGal-1 in assay buffer (i.e. 300-1000 ng/mL biotinylated hGal-3 or hGal-1) to which 1.2 µL of compound working dilutions are added and mixed.
Plates are incubated for 3 hours at 4° C., then washed with cold assay buffer (3×50 uL), incubated for 1 hour with 25 μL/well of a streptavidin-peroxidase solution (diluted in assay buffer to 80 ng/mL) at 4° C., followed by further washing steps with assay buffer (3×50 uL). Finally, 25 µL/well of ABTS substrate is added.
The calculated IC50 values may fluctuate depending on the daily assay performance. Fluctuations of this kind are known to those skilled in the art. IC50 values from several measurements are given as mean values.

The target of test [2] is human Gal-1 (hGal-1) (Homo sapiens, UniProt P09382). Briefly: Competitive binding assay: biotinylated hGal-1 to microplate-adsorbed asialofetuin (ASF). As to the method:
Evaluation of Compound Inhibitory Activity (IC50) The inhibitory activity of compounds is determined in competitive binding assays. […] Alternatively, and preferably, a human Gal-1 version in which all six cysteines are substituted by serines may be used. Briefly, compounds are serially diluted in DMSO (working dilutions). […] Plates are incubated for 3 hours at 4° C., then washed with cold assay buffer (3×50 uL), incubated for 1 hour with 25 μL/well of a streptavidin-peroxidase solution (diluted in assay buffer to 80 ng/mL) at 4° C., followed by further washing steps with assay buffer (3×50 uL). Finally, 25 µL/well of ABTS substrate is added. […] The calculated IC50 values may fluctuate depending on the daily assay performance. Fluctuations of this kind are known to those skilled in the art. IC50 values from several measurements are given as mean values.

Setting [3] is: Activities on hGal-1; binding to ASF-coated plates, 3 hours at 4° C.; mean values; read-out: Gal-1 IC50.

Like-named read-outs stand apart in the source and are kept apart here.

human Gal-1 (hGal-1), sequence (P09382 2-135 limits assumed): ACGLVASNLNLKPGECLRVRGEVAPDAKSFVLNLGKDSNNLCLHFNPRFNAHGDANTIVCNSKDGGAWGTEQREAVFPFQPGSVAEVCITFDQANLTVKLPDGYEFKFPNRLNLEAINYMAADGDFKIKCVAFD
human Gal-3 (hGal-3), sequence (P17931 whole entry): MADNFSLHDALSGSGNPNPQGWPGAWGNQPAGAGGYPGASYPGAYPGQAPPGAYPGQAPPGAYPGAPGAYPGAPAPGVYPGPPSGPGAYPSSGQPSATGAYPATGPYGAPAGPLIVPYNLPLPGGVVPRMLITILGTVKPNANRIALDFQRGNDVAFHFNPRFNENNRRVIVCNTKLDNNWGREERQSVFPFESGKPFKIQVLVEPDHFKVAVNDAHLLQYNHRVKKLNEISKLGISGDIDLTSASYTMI

Turning to `CO[C@@H]1[C@@H](n2cc(-c3cc(F)c(F)c(F)c3)nn2)[C@@H](O)[C@@H](CO)O[C@@H]1CC1=NO[C@]2(CC[C@H](NC(C)C)CC2)C1` [Example 2.12, (2R,3R,4S,5R,6R)-2-(hydroxymethyl)-6-(((5r,8R)-8-(isopropylamino)-1-oxa-2-azaspiro[4.5]dec-2-en-3-yl)methyl)-5-methoxy-4-(4-(3,4,5-trifluorophenyl)-1H-1,2,3-triazol-1-yl)tetrahydro-2H-pyran-3-ol], the figures for the IC50 in test [1] and in test [2] (setting [3]) were 220 nM and 2400 nM, respectively.

Turning to `CO[C@@H]1[C@@H](n2cc(-c3cc(F)c(F)c(F)c3)nn2)[C@@H](O)[C@@H](CO)O[C@@H]1CC1=NO[C@]2(CC[C@H](NC(=O)OC(C)(C)C)CC2)C1` [Example 1.15, tert-butyl ((5r,8R)-3-(((2R,3R,4S,5R,6R)-5-hydroxy-6-(hydroxymethyl)-3-methoxy-4-(4-(3,4,5-trifluorophenyl)-1H-1,2,3-triazol-1-yl)tetrahydro-2H-pyran-2-yl)methyl)-1-oxa-2-azaspiro[4.5]dec-2-en-8-yl)carbamate], the IC50 in test [1] turned out to be 35 nM; in test [2] (setting [3]), 1100 nM.

`CO[C@@H]1[C@@H](n2cc(-c3cc(F)c(F)c(F)c3)nn2)[C@@H](O)[C@@H](CO)O[C@@H]1CN1CC2(CCN(C(=O)OC(C)(C)C)CC2)OC1=O` [Example 3.01, tert-butyl 3-(((2R,3R,4S,5R,6R)-5-hydroxy-6-(hydroxymethyl)-3-methoxy-4-(4-(3,4,5-trifluorophenyl)-1H-1,2,3-triazol-1-yl)tetrahydro-2H-pyran-2-yl)methyl)-2-oxo-1-oxa-3,8-diazaspiro[4.5]decane-8-carboxylate]: the values for the IC50 in test [1] and in test [2] (setting [3]) were 120 nM and 2700 nM, respectively.

As for `CO[C@@H]1[C@@H](n2cc(-c3ccc(C)c(F)c3)nn2)[C@@H](O)[C@@H](CO)O[C@@H]1CC1=NOC2(CCCCC2)C1` [Example 1.20, (2R,3R,4S,5R,6R)-6-((1-oxa-2-azaspiro[4.5]dec-2-en-3-yl)methyl)-4-(4-(3-fluoro-4-methylphenyl)-1H-1,2,3-triazol-1-yl)-2-(hydroxymethyl)-5-methoxytetrahydro-2H-pyran-3-ol], the concentration for half-maximal inhibition (IC50) in test [1] amounted to 120 nM; in test [2] (setting [3]) it was 5300 nM.

In the case of `CCO[C@@H]1[C@@H](n2cc(-c3cc(F)c(F)c(F)c3)nn2)[C@@H](O)[C@@H](CO)O[C@@H]1CC1=NOC2(CCCCC2)C1` [Example 1.69, (2R,3R,4S,5R,6R)-6-((1-oxa-2-azaspiro[4.5]dec-2-en-3-yl)methyl)-5-ethoxy-2-(hydroxymethyl)-4-(4-(3,4,5-trifluorophenyl)-1H-1,2,3-triazol-1-yl)tetrahydro-2H-pyran-3-ol], the IC50 is 300 nM in test [1] and 3100 nM in test [2] (setting [3]).

As to `CO[C@@H]1[C@@H](n2cc(-c3ccc(Cl)c(F)c3F)nn2)[C@@H](O)[C@@H](CO)O[C@@H]1CC1=NOC2(CCN(C(=O)OC(C)(C)C)C2)C1` (mixture of isomers) [Example 1.79, tert-butyl (RS)-3-(((2R,3R,4S,5R,6R)-4-(4-(4-chloro-2,3-difluorophenyl)-1H-1,2,3-triazol-1-yl)-5-hydroxy-6-(hydroxymethyl)-3-methoxytetrahydro-2H-pyran-2-yl)methyl)-1-oxa-2,7-diazaspiro[4.4]non-2-ene-7-carboxylate], the IC50 was determined as 490 nM in test [1] and 4800 nM in test [2] (setting [3]).

On to `CO[C@@H]1[C@@H](n2cc(-c3ccc(C)c(F)c3F)nn2)[C@@H](O)[C@@H](CO)O[C@@H]1CC1=NOC2(C1)CC1CCC2C1` (stereo partly drawn) [Example 1.81, (2R,3R,4S,5R,6R)-6-((4′H-spiro[bicyclo[2.2.1]heptane-2,5′-isoxazol]-3′-yl)methyl)-4-(4-(2,3-difluoro-4-methylphenyl)-1H-1,2,3-triazol-1-yl)-2-(hydroxymethyl)-5-methoxytetrahydro-2H-pyran-3-ol], for which the IC50 in test [1] was 60 nM; in test [2] (setting [3]), 2370 nM.

Regarding `OC[C@H]1O[C@H](CC2=NOC3(CCCCC3)C2)[C@H](O)[C@@H](n2cc(-c3cc(F)c(F)c(F)c3)nn2)[C@H]1O` [Example 1.05, (2R,3R,4R,5R,6R)-2-((1-oxa-2-azaspiro[4.5]dec-2-en-3-yl)methyl)-6-(hydroxymethyl)-4-(4-(3,4,5-trifluorophenyl)-1H-1,2,3-triazol-1-yl)tetrahydro-2H-pyran-3,5-diol], the IC50 in test [1] is 280 nM; in test [2] (read-out: Gal-1 IC50; Activities on hGal-1; binding to ASF-coated plates, 3 hours at 4° C.; mean values) it was 2200 nM.

As to `CO[C@@H]1[C@@H](n2cc(-c3ccc(Cl)c(F)c3F)nn2)[C@@H](O)[C@@H](CO)O[C@@H]1CC1=NOC2(CCOCC2)C1` [Example 1.37, (2R,3R,4S,5R,6R)-6-((1,8-dioxa-2-azaspiro[4.5]dec-2-en-3-yl)methyl)-4-(4-(4-chloro-2,3-difluorophenyl)-1H-1,2,3-triazol-1-yl)-2-(hydroxymethyl)-5-methoxytetrahydro-2H-pyran-3-ol], the values for the IC50 in test [1] and in test [2] (setting [3]) were 120 nM and 4600 nM, respectively.

For `CO[C@@H]1[C@@H](n2cc(-c3cc(F)c(F)c(F)c3)nn2)[C@@H](O)[C@@H](CO)O[C@@H]1CC1=NO[C@]2(CC[C@@H](C)CC2)C1` [Example 1.34, (2R,3R,4S,5R,6R)-2-(hydroxymethyl)-5-methoxy-6-(((5s,8S)-8-methyl-1-oxa-2-azaspiro[4.5]dec-2-en-3-yl)methyl)-4-(4-(3,4,5-trifluorophenyl)-1H-1,2,3-triazol-1-yl)tetrahydro-2H-pyran-3-ol], the IC50 worked out at 520 nM in test [1] and 2500 nM in test [2] (setting [3]).

On to `CO[C@@H]1[C@@H](n2cc(-c3cc(F)c(F)c(F)c3)nn2)[C@@H](O)[C@@H](CO)O[C@@H]1CC1=NOC2(CCC(NC(=O)OC(C)(C)C)CC2)C1` (stereo partly drawn) [Example 1.11, tert-butyl (3-(((2R,3R,4S,5R,6R)-5-hydroxy-6-(hydroxymethyl)-3-methoxy-4-(4-(3,4,5-trifluorophenyl)-1H-1,2,3-triazol-1-yl)tetrahydro-2H-pyran-2-yl)methyl)-1-oxa-2-azaspiro[4.5]dec-2-en-8-yl)carbamate], for which the IC50 in test [1] is 69 nM; in test [2] (setting [3]) it was 1500 nM.

Take `CO[C@@H]1[C@@H](n2cc(-c3cc(F)c(F)c(F)c3)nn2)[C@@H](O)[C@@H](CO)O[C@@H]1CC1=NOC2(CCC(C(C)C)CC2)C1` (stereo partly drawn) [Example 1.25, (2R,3R,4S,5R,6R)-2-(hydroxymethyl)-6-((8-isopropyl-1-oxa-2-azaspiro[4.5]dec-2-en-3-yl)methyl)-5-methoxy-4-(4-(3,4,5-trifluorophenyl)-1H-1,2,3-triazol-1-yl)tetrahydro-2H-pyran-3-ol]: the IC50 was 1300 nM in test [1] and 11100 nM in test [2] (setting [3]).

As for `CO[C@@H]1[C@@H](n2cc(-c3cc(F)c(C)c(F)c3)nn2)[C@@H](O)[C@@H](CO)O[C@@H]1CC1=NOC2(CCCCC2)C1` [Example 1.21, (2R,3R,4S,5R,6R)-6-((1-oxa-2-azaspiro[4.5]dec-2-en-3-yl)methyl)-4-(4-(3,5-difluoro-4-methylphenyl)-1H-1,2,3-triazol-1-yl)-2-(hydroxymethyl)-5-methoxytetrahydro-2H-pyran-3-ol], the IC50 in test [1] was 110 nM; in test [2] (setting [3]) it was 11400 nM.

Regarding `CCOC(=O)N[C@H]1CC[C@]2(CC1)CC(C[C@H]1O[C@H](CO)[C@H](O)[C@H](n3cc(-c4ccc(Cl)c(F)c4F)nn3)[C@H]1OC)=NO2` [Example 2.11, ethyl ((5r,8R)-3-(((2R,3R,4S,5R,6R)-4-(4-(4-chloro-2,3-difluorophenyl)-1H-1,2,3-triazol-1-yl)-5-hydroxy-6-(hydroxymethyl)-3-methoxytetrahydro-2H-pyran-2-yl)methyl)-1-oxa-2-azaspiro[4.5]dec-2-en-8-yl)carbamate], the concentration for half-maximal inhibition (IC50) stood at 19 nM in test [1] and 340 nM in test [2] (setting [3]).

`CO[C@@H]1[C@@H](n2cc(-c3cc(F)c(F)c(F)c3)nn2)[C@@H](O)[C@@H](CO)O[C@@H]1CC1=NOC2(CCC(=O)CC2)C1` [Example 1.66, 3-(((2R,3R,4S,5R,6R)-5-hydroxy-6-(hydroxymethyl)-3-methoxy-4-(4-(3,4,5-trifluorophenyl)-1H-1,2,3-triazol-1-yl)tetrahydro-2H-pyran-2-yl)methyl)-1-oxa-2-azaspiro[4.5]dec-2-en-8-one]: the IC50 in test [1] is 250 nM; in test [2] (setting [3]) it was 2700 nM.

Broadly, the IC50 is the concentration needed to halve the response being measured.

Source of the values: patent US20230295182A1, “SPIRO DERIVATIVES OF ALPHA-D-GALACTOPYRANOSIDES” (Idorsia Pharmaceuticals Ltd, priority 2020, published 2023).
